{"source": "patent US12649734B2", "about": "“Bioavailable protein disulfide isomerase inhibitors” (THE CLEVELAND CLINIC FOUNDATION, priority 2020, dated 2026)", "key": {"[1]": {"assay": "Stability in acidic conditions (6 N HCl)", "type": "physicochemical", "conditions": "3 h", "procedure": "To evaluate pharmacological properties of CCF642-34, the stability in acidic conditions (6 N HCl) and upon exposure to human liver microsomes was tested. […] It was therefore concluded that CCF642-34 may be orally bioavailable and effective against MM in vivo."}, "MM1.S-luc": {"test_system": "MM1.S-luc", "assay": "Chou and Talalay drug combination test with BTZ", "type": "cell-based, human", "conditions": "combined with BTZ; lower dose range affecting 70% of myeloma cells or less", "procedure": "Cell vi-ability and LD50 for inhibitors were measured in 96 well culture plates (2×10^4 cells/well) after 72 h of treatment using CellTiter-Glo® Luminescent Cell Viability Assay (Promega, Madison, WI, USA). (A) Cell survival assay with MM1.S.luc and BTZ-resistant MM1.S.luc cells. […] (C) Comparison of PDIA1 protein levels in MM1.S.luc and MM1.S.luc BTZ-resistant cells. Band intensity was calculated with Image Lab Version 5.2.1. (D) Cell survival assay with 5TGM1.luc and (E) BTZ-resistant 5TGM1.luc cells. (F) MM1.S cell line was exposed to CCF642-34, and BTZ for 72 h for synergistic drug combination test according to Chou and Talalay method. If the […] remained less than 1, the two drugs were determined as synergistic. […] The number of colony-forming units were plotted for each treatment."}, "[2]": {"test_system": "RPMI-8226 cells vs CD34+ HSPCs derived from healthy bone marrow", "assay": "In vitro colony-forming assay, myeloma cells versus normal bone marrow CD34+ cells", "type": "cell-based, human", "conditions": "colonies scored on day 14", "procedure": "In vitro colony-forming assays: Mononuclear cells derived from bone marrow or purified CD34+ cells from a healthy donor, cord blood, or MM cell RPMI-8226 were grown in semi-solid methylcellulose media (MethoCult™, H4435; STEMCELL Technologies) in the presence of indicated compounds and concentrations. A total of 10,000/mL normal bone marrow CD34+ cells and 1000/mL RPMI-8226 cells were plat-ed, and colonies were scored on day 14."}, "PDIA1": {"target": "PDIA1 (Homo sapiens, UniProt P07237)", "sequence (P07237 18-508)": "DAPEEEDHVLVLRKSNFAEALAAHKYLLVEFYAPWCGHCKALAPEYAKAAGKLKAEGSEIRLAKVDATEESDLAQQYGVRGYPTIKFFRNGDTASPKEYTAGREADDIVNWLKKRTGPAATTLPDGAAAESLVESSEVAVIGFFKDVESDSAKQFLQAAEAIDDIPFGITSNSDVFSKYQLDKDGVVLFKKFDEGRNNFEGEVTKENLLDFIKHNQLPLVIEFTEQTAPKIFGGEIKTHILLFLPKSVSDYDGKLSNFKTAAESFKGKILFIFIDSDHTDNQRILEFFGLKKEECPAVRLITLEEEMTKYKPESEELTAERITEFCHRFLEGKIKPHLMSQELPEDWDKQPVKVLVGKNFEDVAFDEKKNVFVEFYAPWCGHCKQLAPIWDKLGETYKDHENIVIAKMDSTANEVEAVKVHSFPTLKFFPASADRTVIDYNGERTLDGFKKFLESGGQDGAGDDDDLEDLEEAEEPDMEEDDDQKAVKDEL", "assay": "PDIA1 activity assay, insulin reduction", "type": "biochemical", "parameters": "His6 (6xHN, pET6xHN-N vector) (N); made in house; host or cells: Escherichia coli BL21 (DE3) NiCo", "conditions": "read-out: inactivation constant, Kinact for PDIA1", "procedure": "PDI activity: All PDI activity assays were performed using two different substrates, insulin and di-eosin-diglutathione (di-E-GSSG) as described earlier (Vatolin et al., Ibid) with brief modifications. PDIA1 (1 μM) was incubated for 1 h with varying concentrations of PDIA1 inhibitors 642 or 642-34 (0.1, 03, 1, 5, 10, or 20 μM) in 100 mM sodium phosphate pH 7.0, 2 mM EDTA, and 1% DMSO. Bovine insulin (100 μM) and DTT (1 mM) were added to initiate the reaction. Kinetic readings were taken every minute for 2 h at 650 nm absorbance using a BioTek Synergy plate reader (BioTek Instruments, Inc., Winooski, VT, USA). For highly sensitive fluorescence-based assays, di-E-GSSG as a pseudo substrate was utilized to access the activity of PDIA1. Raturi, A.; Mutus, B., Free. Radic. Biol. Med., 43, 62-70 (2007) Known concentrations of recombinant PDIA1 were mixed with 10 mM GSH and incubated at 37° C. for 30 min in 150 mM K2HPO4/KH2PO4 (pH 7.1) buffer solution. PDI inhibitor was added into the mixture and incubated for an additional 30 min at 37° C. […] Synergy H1 plate reader (BioTek, WI, USA) was used for kinetic analysis using excitation at 518 nm, emission at 545 nm, reads of 0.1 sec/well every minute at 25° C. for 1 h. Baseline fluorescence was determined from di-E-GSSG reactions without PDI and GSH. […]"}}, "data": [{"smiles": "NC(CC1CNc2ccccc21)C(=O)NCCCOc1ccc(N2C(=O)/C(=C/c3ccc([N+](=O)[O-])s3)SC2=S)cc1", "note": "(stereo not shown) [CCF642-34]", "values": [{"measurement": "compound recovered after exposure to acid", "setting": "[1]", "result": "greater than 80%"}, {"measurement": "combination index (CI)", "setting": "MM1.S-luc", "result": "below 1"}, {"measurement": "potency in restricting colony formation of RPMI-8226 compared to CD34+ HSPCs", "setting": "[2]", "result": 20, "unit": "fold"}, {"measurement": "KI (inactivation)", "setting": "PDIA1", "result": "100 ± 8.5", "unit": "nM"}]}]}
